Experiments:
Assay type in all cases: in vivo
Cyperus difformis = experiment: Test Example 3: herbicidal effect by foliage application, Wagner pot (symbol E); details: application herbicide amount 320 g/ha
Procedure, shortened: (§1)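 Herbicidal activity was rated three weeks after a foliar spray of diluted emulsion concentrate, applied at a predetermined dose to plants grown for 14 days from seed in waterlogged alluvial soil within a 25–30 °C greenhouse.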

Setaria viridis = experiment: Test Example 5: herbicidal effect by foliage application, plastic box (symbol G); details: 320 g/ha, 3 weeks after application
Procedure, shortened: (§2)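 Effect is rated 3 weeks after a foliar spray of water-diluted emulsion concentrate at a predetermined herbicide amount. Plants had grown 14 days in a 25° C. to 30° C. greenhouse from seed in sterilized diluvial soil.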

transplanted rice plant = experiment: Test Example 1: effect on crop, application before weed generation in submerged conditions (symbol a); details: application herbicide amount 320 g/ha
Procedure, shortened: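 Alluvial soil pots flooded to 4 cm water, sown with Echinochloa oryzacola, Scirpus juncoides and Monochoria vaginalis, then transplanted with 2.5 leaf stage rice seedlings; pre-emergence application. Greenhouse 25° C. to 30° C.; scored 0–5 by herbicidal ratio 3 weeks after application.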

Lolium multiflorum Lam. = experiment: Test Example 5: herbicidal effect by foliage application, plastic box (symbol K); details: 320 g/ha, 3 weeks after application
Procedure, shortened: as §2

rice plant = experiment: Test Example 5: effect on crop by foliage application, plastic box (symbol b); details: 320 g/ha, 3 weeks after application
Procedure, shortened: (§3)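 Soil: sterilized diluvial. Container: plastic box, 21 × 13 cm, 7 cm deep. Sowing: spot-like, ~1.5 cm cover. Growth: greenhouse, 25° C. to 30° C.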

Chenopodium album = experiment: Test Example 5: herbicidal effect by foliage application, plastic box (symbol O); details: 320 g/ha, 3 weeks after application
Procedure, shortened: as §2

[1] = test system: Echinochloa oryzacola Vasing.; experiment: Test Example 1: herbicidal activity, application before weed generation in submerged conditions (symbol A); details: application herbicide amount 320 g/ha
Procedure, shortened: (§4)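 Compound emulsion was diluted to a set herbicide amount and applied to the water surface on the sowing day, into submerged (4 cm) alluvial-soil pots sown with mixed weed seeds and transplanted 2.5-leaf rice. Pots were held in a 25–30 °C greenhouse, and weeds were scored 0–5 by herbicidal ratio after 3 weeks.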

Avena fatua = experiment: Test Example 5: herbicidal effect by foliage application, plastic box (symbol I); details: 320 g/ha, 3 weeks after application
Procedure, shortened: as §2

Stellaria media = experiment: Test Example 5: herbicidal effect by foliage application, plastic box (symbol P); details: 320 g/ha, 3 weeks after application
Procedure, shortened: as §2

Alopecurus myosuroides = experiment: Test Example 5: herbicidal effect by foliage application, plastic box (symbol J); details: 320 g/ha, 3 weeks after application
Procedure, shortened: as §2

Monochoria vaginalis [2] = experiment: Test Example 1: herbicidal activity, application before weed generation in submerged conditions (symbol C); details: application herbicide amount 320 g/ha
Procedure, shortened: as §4

Galium spurium = experiment: Test Example 5: herbicidal effect by foliage application, plastic box (symbol Q); details: 320 g/ha, 3 weeks after application
Procedure, shortened: as §2

Abutilon theophrasti = experiment: Test Example 5: herbicidal effect by foliage application, plastic box (symbol M); details: 320 g/ha, 3 weeks after application
Procedure, shortened: as §2

Scirpus juncoides [3] = experiment: Test Example 2: herbicidal activity, application during weed generation in submerged conditions (symbol B); details: Table 23; application herbicide amount 320 g/ha; grade 0-5 by criteria of Test Example 1
Procedure, shortened: (§5)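 Visual herbicidal ratings, taken three weeks after dosing, reflect post-emergence water-surface application to seedlings at one to two leaves. Conditions: co-sown weeds in alluvial soil flooded to 4 cm, greenhouse held at 25° C. to 30° C.; compound given as water-diluted emulsion at a fixed herbicide amount.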

[4] = test system: Echinochloa crus-galli var. crus-galli; experiment: Test Example 3: herbicidal effect by foliage application, Wagner pot (symbol H); details: application herbicide amount 320 g/ha
Procedure, shortened: as §1

Veronica persica = experiment: Test Example 5: herbicidal effect by foliage application, plastic box (symbol R); details: 320 g/ha, 3 weeks after application
Procedure, shortened: as §2

[5] = test system: directly sowed rice plant; experiment: Test Example 3: effect on crop by foliage application, Wagner pot (symbol b); details: application herbicide amount 320 g/ha
Procedure, shortened: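 Plants are raised from seed in flooded paddy conditions: water stands 0.1–0.5 cm over alluvial soil, and the pot is kept in a greenhouse at 25–30 °C. Species sown are barnyardgrass (E. crus-galli var. crus-galli), Leptochloa chinensis, Cyperus difformis and rice.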

Scirpus juncoides [6] = experiment: Test Example 1: herbicidal activity, application before weed generation in submerged conditions (symbol B); details: application herbicide amount 320 g/ha
Procedure, shortened: as §4

rapeseed = experiment: Test Example 5: effect on crop by foliage application, plastic box (symbol g); details: 320 g/ha, 3 weeks after application
Procedure, shortened: as §3

Monochoria vaginalis [7] = experiment: Test Example 2: herbicidal activity, application during weed generation in submerged conditions (symbol C); details: Table 23; application herbicide amount 320 g/ha; grade 0-5 by criteria of Test Example 1
Procedure, shortened: as §5

[8] = test system: Echinochloa crus-galli var. crus-galli; experiment: Test Example 5: herbicidal effect by foliage application, plastic box (symbol H); details: 320 g/ha, 3 weeks after application
Procedure, shortened: as §2

soybean = experiment: Test Example 5: effect on crop by foliage application, plastic box (symbol d); details: 320 g/ha, 3 weeks after application
Procedure, shortened: as §3

wheat = experiment: Test Example 5: effect on crop by foliage application, plastic box (symbol e); details: 320 g/ha, 3 weeks after application
Procedure, shortened: as §3

[9] = test system: Echinochloa oryzacola Vasing.; experiment: Test Example 2: herbicidal activity, application during weed generation in submerged conditions (symbol A); details: Table 23; application herbicide amount 320 g/ha; grade 0-5 by criteria of Test Example 1
Procedure, shortened: as §5

Digitaria ciliaris = experiment: Test Example 5: herbicidal effect by foliage application, plastic box (symbol F); details: 320 g/ha, 3 weeks after application
Procedure, shortened: as §2

beet = experiment: Test Example 5: effect on crop by foliage application, plastic box (symbol f); details: 320 g/ha, 3 weeks after application
Procedure, shortened: as §3

Leptochloa chinensis = experiment: Test Example 3: herbicidal effect by foliage application, Wagner pot (symbol D); details: application herbicide amount 320 g/ha
Procedure, shortened: as §1

corn = experiment: Test Example 5: effect on crop by foliage application, plastic box (symbol c); details: 320 g/ha, 3 weeks after application
Procedure, shortened: as §3

Amaranthus retroflexus = experiment: Test Example 5: herbicidal effect by foliage application, plastic box (symbol N); details: 320 g/ha, 3 weeks after application
Procedure, shortened: as §2

Apera spica-venti = experiment: Test Example 5: herbicidal effect by foliage application, plastic box (symbol L); details: 320 g/ha, 3 weeks after application
Procedure, shortened: as §2

## CON=C(C)CC1CC(OC(=O)N(C)C)=C(c2c(C)cc(-c3ccc(Cl)cc3)cc2OC)C1=O (stereo not drawn) [6-081]
Cyperus difformis
  herbicidal effect on E, grade 0-5: 0 (Herbicidal ratio of 5% or lower (almost no effect))
Setaria viridis
  G: Setaria viridis, herbicidal effect (criteria of Test Example 1): 0 (Herbicidal ratio of 5% or lower (almost no effect))
Transplanted rice plant
  Effect grade on crop, a: transplanted rice plant: 3 (Herbicidal ratio of 40% or higher and lower than 70%)
Lolium multiflorum Lam.
  K: Lolium multiflorum Lam., herbicidal effect (criteria of Test Example 1): 4 (Herbicidal ratio of 70% or higher and lower than 90%)
Rice plant
  b: directly sowed rice plant, effect on crop (criteria of Test Example 1): 0 (Herbicidal ratio of 5% or lower (almost no effect))
Chenopodium album
  O: Chenopodium album, herbicidal effect (criteria of Test Example 1): 0 (Herbicidal ratio of 5% or lower (almost no effect))
[1]
  Herbicidal effect grade, A: Echinochloa oryzacola Vasing.: 5 (Herbicidal ratio of 90% or more (almost completely withered))
Avena fatua
  I: Avena fatua, herbicidal effect (criteria of Test Example 1): 5 (Herbicidal ratio of 90% or more (almost completely withered))
Stellaria media
  P: Stellaria media, herbicidal effect (criteria of Test Example 1): 0 (Herbicidal ratio of 5% or lower (almost no effect))
Alopecurus myosuroides
  J: Alopecurus myosuroides, herbicidal effect (criteria of Test Example 1): 3 (Herbicidal ratio of 40% or higher and lower than 70%)
Monochoria vaginalis [2]
  Herbicidal effect grade, C: Monochoria vaginalis: 1 (Herbicidal ratio of 5% or higher and lower than 20%)
Galium spurium
  Q: Galium spurium, herbicidal effect (criteria of Test Example 1): 0 (Herbicidal ratio of 5% or lower (almost no effect))
Abutilon theophrasti
  M: Abutilon theophrasti, herbicidal effect (criteria of Test Example 1): 0 (Herbicidal ratio of 5% or lower (almost no effect))
Scirpus juncoides [3]
  Herbicidal effect grade, B: Scirpus juncoides: 0 (Herbicidal ratio of 5% or lower (almost no effect))
[4]
  herbicidal effect on H (Echinochloa crus-galli var. crus-galli), grade 0-5: 1 (Herbicidal ratio of 5% or higher and lower than 20%)
Veronica persica
  R: Veronica persica, herbicidal effect (criteria of Test Example 1): 0 (Herbicidal ratio of 5% or lower (almost no effect))
[5]
  effect on crop b (directly sowed rice plant), grade 0-5: 0 (Herbicidal ratio of 5% or lower (almost no effect))
Scirpus juncoides [6]
  Herbicidal effect grade, B: Scirpus juncoides: 0 (Herbicidal ratio of 5% or lower (almost no effect))
rapeseed
  g: rapeseed, effect on crop (criteria of Test Example 1): 3 (Herbicidal ratio of 40% or higher and lower than 70%)
Monochoria vaginalis [7]
  Herbicidal effect grade, C: Monochoria vaginalis: 0 (Herbicidal ratio of 5% or lower (almost no effect))
[8]
  H: Echinochloa crus-galli var. crus-galli, herbicidal effect (criteria of Test Example 1): 4 (Herbicidal ratio of 70% or higher and lower than 90%)
soybean
  d: soybean, effect on crop (criteria of Test Example 1): 0 (Herbicidal ratio of 5% or lower (almost no effect))
wheat
  e: wheat, effect on crop (criteria of Test Example 1): 3 (Herbicidal ratio of 40% or higher and lower than 70%)
[9]
  Herbicidal effect grade, A: Echinochloa oryzacola Vasing.: 1 (Herbicidal ratio of 5% or higher and lower than 20%)
Digitaria ciliaris
  F: Digitaria ciliaris, herbicidal effect (criteria of Test Example 1): 4 (Herbicidal ratio of 70% or higher and lower than 90%)
beet
  f: beet, effect on crop (criteria of Test Example 1): 0 (Herbicidal ratio of 5% or lower (almost no effect))
Leptochloa chinensis
  herbicidal effect on D (Leptochloa chinensis), grade 0-5: 3 (Herbicidal ratio of 40% or higher and lower than 70%)
corn
  c: corn, effect on crop (criteria of Test Example 1): 5 (Herbicidal ratio of 90% or more (almost completely withered))
Amaranthus retroflexus
  N: Amaranthus retroflexus, herbicidal effect (criteria of Test Example 1): 0 (Herbicidal ratio of 5% or lower (almost no effect))
Apera spica-venti
  L: Apera spica-venti, herbicidal effect (criteria of Test Example 1): 5 (Herbicidal ratio of 90% or more (almost completely withered))

— US11000033B2, “Ketone or oxime compound, and herbicide” (NISSAN CHEMICAL CORPORATION, priority 2014, dated 2021)
